Laboratory results taken from US11846640B2, “Identification of anticoagulants in a sample” (DSM IP Assets B.V., priority 2013, dated 2023).

Columns and labels:
Format in all cases: biochemical, human
plasma samples [1] = assay: aPTT (HemosIL aPTT SP) clotting time; details: for Clotting time with aPTT: Table 6, spiked plasma, mean
Description: (§1) In order to address the above question, i.e. to determine the nature of an anticoagulant in a sample, a combination of several methods has to be performed, including PiCT® Method 1, PiCT® Method 4, aPTT (HemosIL™ aPTT SP), PT (HemosIL™ PT recombiplastin), and sometimes even a modified PiCT® Method 1 wherein polybrene has been added. In order to simulate this, plasma samples spiked with different levels of anticoagulants were analyzed using the ACL TOP® 500 analyzer. For each drug, a specific pattern was obtained, i.e. clotting times within the RR and clotting times above the RR, depending on the used testing method, which is unique at least for the class of anticoagulant or even for a specific anticoagulant.

plasma samples [2] = assay: PiCT Method 1 with polybrene added, clotting time; details: Table 6, spiked plasma, mean
Description: By the addition of polybrene a distinction can be done, which of the anticoagulants is really present in the sample: if after addition of polybrene the measured clotting times are again back to RR when using the PiCT® Method 1, the sample comprises heparins, such as e.g. UFH or LMWH. Alternatively, if the result is not going back to RR, the sample comprises low concentrations of dabigatran or hirudin. […] The particular clotting times measured for the different anticoagulants are shown in Table 6, which is an example of results obtained in spiked plasma samples.
as §1

normal plasma pool (NPP) = assay: PiCT Method 3 clotting time on ACL TOP 500; details: Table 8B (argatroban), PiCT Method 3, NPP spiked, mean n = 4
Description: The 4 methods (see above) are in more detail described in the Examples. Specific pipetting schemes were designed using NPP spiked with incremental amounts of anticoagulants in order to achieve high reproducibility of the test system, which is required for drug identification including use in a POC system. […] […]-50/I-180/50-S). […] […]-65/I-180/35-S on the ACL TOP® 500 or […]-65/I-180/40-S on the STA Compact® or […]-65/[…]-40 on the BCS® XP. […] […]-70/I-180/40-S on the ACL TOP® 500 or STA Compact®, or […]-60/I-180/45-S on the BCS® XP.

Row | SMILES | Clotting time with aPTT (plasma samples [1]; 0.3 μg) [s] | Clotting time with aPTT (plasma samples [1]; 1.5 μg) [s] | Clotting time with PiCT ® Method 1 + polybrene (plasma samples [2]; 0.3 μg) [s] | Clotting time with PiCT ® Method 1 + polybrene (plasma samples [2]; 1.5 μg) [s] | Clotting time (normal plasma pool (NPP); 0.2 μg/ml) [s] | Clotting time (normal plasma pool (NPP); 0.4 μg/ml) [s] | Clotting time (normal plasma pool (NPP); 0.6 μg/ml) [s] | Clotting time (normal plasma pool (NPP); 0.8 μg/ml) [s] | Clotting time (normal plasma pool (NPP); 1.0 μg/ml) [s] | Clotting time (normal plasma pool (NPP); 1.2 μg/ml) [s] | Clotting time (normal plasma pool (NPP); 1.4 μg/ml) [s] | Clotting time (normal plasma pool (NPP); 1.6 μg/ml) [s] | Clotting time (normal plasma pool (NPP); 1.8 μg/ml) [s] | Clotting time (normal plasma pool (NPP); 2.0 μg/ml) [s] | Clotting time with aPTT (plasma samples [1]; 50 ng) [s] | Clotting time with aPTT (plasma samples [1]; 200 ng) [s] | aPTT clotting time relative to reference range (RR) (plasma samples [1]; only at higher doses, in the range of 200 ng or more)
1 | CC1CNc2c(cccc2S(=O)(=O)N[C@@H](CCCNC(=N)N)C(=O)N2CC[C@@H](C)C[C@@H]2C(=O)O)C1 (some centres unmarked) [argatroban] | 61.7 | 106.2 | 85.6 | 126.4 | 113 | 145 | 162 | 179 | 198 | 204 | 210 | 232 | 234 | 240 |  |  | 
2 | O=C(NC[C@H]1CN(c2ccc(N3CCOCC3=O)cc2)C(=O)O1)c1ccc(Cl)s1 [rivaroxaban] |  |  |  |  |  |  |  |  |  |  |  |  |  |  | 34.5 | 49.6 | above the RR
